Experimental data reported in patent publication US7064139B2, “Method for treating retroviral infections” (Uniroyal Chemical Company, Inc., priority 2001, dated 2006).
≈ marks a conversion by molar mass, not a printed value.

Assays:
[1] = system: HIV-1 (IIIB); experiment: microbe, parasite or virus in culture; format: cell-based; settings: for EC50 (ug/ml) HIV-1 / EC50: CEM cells, syncytium formation, day four post infection; for HIV-1 % Protection: protection of CEM cells against virus-induced cytopathicity at the concentration in the previous column; for EC50: Human immunodeficiency virus 1, IIIB, CCRF-CEM, read-out: EC50 (ug/ml) HIV-1
Source text: (§1) The cell type used to determine activity of the compounds of the invention herein, i.e., the test compounds, against HIV was human T-lymphoblast (CEM) cells obtained from the American Tissue Cell Culture Collection (Rockville, Md.). HIV-1 (IIIB) was originally obtained from the culture of persistently HIV-1 infected H9 cells and was provided by R. C. Gallo and M. Popovic (National Cancer Institute, National Institutes of Health, Bethesda, Md.). HIV-2 (ROD) was originally obtained from L. M. Montagnier (Pasteur Institute, Paris, France).
(§2) To determine the antiviral activity of the test compounds, CEM cells were suspended at a cell density of approximately 300,000 cells per ml of culture medium and infected with approximately 100 CCID50 (100 CCID50 being the 50% cell culture infective dose) of HIV-1 (IIIB) or HIV-2 (ROD)). Then 100 μl of the infected cell suspensions was added to 200 μl micro titer plate wells containing 100 μl of appropriate serial (5-fold) dilutions of the test compounds. The inhibitory effect of the test compounds on HIV-1 or HIV-2 syncytium formation in CEM cells was examined microscopically on day four post infection.
(§3) In these cases, the percent protection of the cells against virus-induced cytopathicity by the test compounds at the indicated compound concentration in the previous column is given.

[2] = system: Davis strain CMV; experiment: Reduction of CMV-induced cytopathicity in HEL cells; format: cell-based, human cytomegalovirus (HCMV); settings: HEL cells; for Antiviral % Inhibition Davis strain CMV: estimate of percent protection at the concentration in the previous column; for Antiviral EC50 (ug/ml) Davis strain CMV / EC50: virus-induced cytopathicity after seven days; for EC50: Human betaherpesvirus 5, 168 h, read-out: Antiviral EC50 (ug/ml) Davis strain CMV
Procedure: Confluent HEL cells grown in […] microtiter plates were inoculated with CMV at an input of 100 PFU (plaque forming units) per well. After a one to two hour incubation period, residual virus was removed and the infected cells were further incubated with MEM (Minimal Essential Medium) (supplemented with 2% inactivated Fetal Calf Serum (FCS), […], and 0.3% sodium bicarbonate) containing varying concentrations of the test compounds. Antiviral activity was expressed as EC50 (50% effective concentration), or test compound concentration required to reduce virus-induced cytopathicity after seven days by 50% compared to the untreated control.
In some cases, the compounds had considerable cytotoxicity against HEL cells, which made determination of the EC50 difficult. In these cases, an estimate of the percent protection at the compound concentration indicated in the previous columns is given.

[3] = system: HIV-2 (ROD); experiment: Inhibition of HIV-2 syncytium formation in CEM cells; format: cell-based; settings: for EC50 (ug/ml) HIV-2 / EC50: CEM cells, syncytium formation, day four post infection; for HIV-2 % Protection: protection of CEM cells against virus-induced cytopathicity at the concentration in the previous column; for EC50: Human immunodeficiency virus 2, CCRF-CEM, read-out: EC50 (ug/ml) HIV-2
Source text: as §1, §2, §3

Molecule | EC50 (ug/ml) HIV-1 [1] | Antiviral % Inhibition Davis strain CMV [2] [%] | Antiviral EC50 (ug/ml) Davis strain CMV [2] [µg/mL] | EC50 (ug/ml) HIV-2 [3] | HIV-1 % Protection [1] [%] | HIV-2 % Protection [3] [%] | EC50 [1] [µg/mL] | EC50 [3] [µg/mL] | EC50 [2] [µg/mL]
O=S(=O)(Cc1ccc2c(c1)OCO2)c1cccc[n+]1[O-] [Compound 39] | 9.00 µg/mL (≈ 30.7 µM) | 30.0 | >20 | – | – | – | – | – | –
Cc1ccc(C)c(C(C)S(=O)(=O)c2cccc(Cl)[n+]2[O-])c1 (stereo not drawn) [Compound 76] | 0.90 µg/mL (≈ 2.76 µM) | – | 9.1 | 2.4 µg/mL (≈ 7.37 µM) | – | – | – | – | –
COc1cc(C=C(C#N)Sc2cccc[n+]2[O-])cc(OC)c1OC [Compound 160] | >20 µg/mL | – | 7.0 | >20 µg/mL | 0.0 | 0.0 | – | – | –
O=S(=O)(Cc1cccs1)c1cccc[n+]1[O-] [Compound 8] | >20 µg/mL | – | 11.0 | >20 µg/mL | 0.0 | 0.0 | – | – | –
Cc1ccc(CS(=O)(=O)c2cccc[n+]2[O-])cc1[N+](=O)[O-] [Compound 67] | 2.30 µg/mL (≈ 7.46 µM) | 20.0 | >50 | 2.4 µg/mL (≈ 7.78 µM) | – | – | – | – | –
Cc1ccc(C)c(CSc2ccccn2)c1.Cl [Compound 157] | 6.00 µg/mL | 0.0 | >50 | ≧20 ug/ml | – | 37.5 | – | – | –
2-(4-(2,2-dichlorocyclopropyl)phenyl)methylsulfonyl)-pyridine-N-oxide [Compound 45] | 1.75 µg/mL | – | 2.5 | 1.5 µg/mL | – | – | – | – | –
O=S(=O)(Cc1cccc(Br)c1)c1cccc[n+]1[O-] [Compound 38] | 2.50 µg/mL (≈ 7.62 µM) | – | 5.0 | ≧4 ug/ml | – | 37.5 | – | – | –
Cc1ccc(C)c(C(Cl)S(=O)(=O)c2c(Cl)ccc[n+]2[O-])c1 (stereo not drawn) [Compound 125] | >4 µg/mL | – | 31.5 | >4.0 µg/mL | 0.0 | 0.0 | – | – | –
Cc1ccc(N)cc1C(C)S(=O)(=O)c1cccc[n+]1[O-] (stereo not drawn) [Compound 1] | 20.00 µg/mL (≈ 68.4 µM) | 0.0 | >50 | 41.0 µg/mL (≈ 140 µM) | – | – | – | – | –
Cc1ccc(C)c(C(Cl)S(=O)(=O)c2cccc(C)[n+]2[O-])c1 (stereo not drawn) [Compound 73] | 2.80 µg/mL (≈ 8.59 µM) | 40.0 | >20 | >100.0 µg/mL | – | 0.0 | – | – | –
CC(C)c1ccc(CS(=O)(=O)c2cccc[n+]2[O-])cc1 [Compound 58] | 3.40 µg/mL (≈ 11.7 µM) | – | 5.0 | 2.6 µg/mL (≈ 8.92 µM) | – | – | – | – | –
[O-][n+]1cc(Cl)ccc1SCc1ccccc1 [Compound 151] | >20 µg/mL | 20.0 | >20 | >20.00 µg/mL | 0.0 | 0.0 | – | – | –
COc1ccc([N+](=O)[O-])cc1CS(=O)(=O)c1cccc[n+]1[O-] [Compound 20] | 7.00 µg/mL (≈ 21.6 µM) | – | 13.0 | 13.0 µg/mL (≈ 40.1 µM) | – | – | – | – | –
[O-][n+]1cccc(Cl)c1[S+]([O-])Cc1ccccc1 (stereo not drawn) [Compound 136] | 1.50 µg/mL (≈ 5.6 µM) | – | 4.7 | >4.0 µg/mL | – | 0.0 | – | – | –
Cc1cc[n+]([O-])c(S(=O)(=O)Cc2ccc(Cl)cc2)c1 [Compound 129] | >14 µg/mL | 20.0 | >5 | 11.0 µg/mL (≈ 36.9 µM) | – | – | – | – | –
Cc1cc[n+]([O-])c([S+]([O-])Cc2ccc(Cl)cc2)c1 (stereo not drawn) [Compound 128] | ≧4 ug/ml | 40.0 | >20 | 7.0 µg/mL (≈ 24.8 µM) | 37.5 | – | – | – | –

Molecule | EC50 (ug/ml) HIV-1 [1] | Antiviral % Inhibition Davis strain CMV [2] [%] | Antiviral EC50 (ug/ml) Davis strain CMV [2] [µg/mL] | EC50 (ug/ml) HIV-2 [3] | HIV-1 % Protection [1] [%] | HIV-2 % Protection [3] [%] | EC50 [1] [µg/mL] | EC50 [3] [µg/mL] | EC50 [2] [µg/mL]
CCOc1ccccc1CS(=O)(=O)c1cccc[n+]1[O-] [Compound 48] | 9.50 µg/mL (≈ 32.4 µM) | 20.0 | >20 | 16.0 µg/mL (≈ 54.5 µM) | – | – | – | – | –
O=S(=O)(Cc1c(Cl)cccc1Cl)c1cccc[n+]1[O-] [Compound 17, 2-(2,6-Dichlorophenylmethylsulfonyl)pyridine N-oxide] | – | – | – | – | – | – | 9 (≈ 28.3 µM) | 8 (≈ 25.1 µM) | 5 (≈ 15.7 µM)
Cc1ccc[n+]([O-])c1S(=O)(=O)Cc1c(Cl)cccc1Cl [Compound 139] | >20 µg/mL | – | 43.0 | >20.00 µg/mL | 0.0 | 0.0 | – | – | –
Cc1ccc[n+]([O-])c1S(=O)(=O)C(C)c1ccccc1Cl (stereo not drawn) [Compound 120] | 3.30 µg/mL (≈ 10.6 µM) | – | 12.5 | >20.00 µg/mL | – | 0.0 | – | – | –
O=S(=O)(Cc1ccccc1Oc1ccccc1)c1cccc[n+]1[O-] [Compound 56] | 5.30 µg/mL (≈ 15.5 µM) | 20.0 | >5 | 4.7 µg/mL (≈ 13.8 µM) | – | – | – | – | –
O=S(=O)(Cc1ccc2ccccc2c1)c1cccc[n+]1[O-] [Compound 53] | 2.33 µg/mL (≈ 7.78 µM) | 20.0 | >5 | 4.1 µg/mL (≈ 13.7 µM) | – | – | – | – | –
O=S(=O)(Cc1ccc(F)cc1)c1cccc[n+]1[O-] [Compound 29] | 11.00 µg/mL (≈ 41.2 µM) | 10.0 | >20 | 7.0 µg/mL (≈ 26.2 µM) | – | – | – | – | –
Cc1ccc(C[S+]([O-])c2cccc[n+]2[O-])cc1 (stereo not drawn) [Compound 91] | >4 µg/mL | – | 34.5 | >4.0 µg/mL | 0.0 | 0.0 | – | – | –
O=S(=O)(Cc1ccc(-c2ccccc2)cc1)c1cccc[n+]1[O-] [Compound 54] | ≧4 ug/ml | – | 5.0 | 4.0 µg/mL (≈ 12.3 µM) | 37.5 | – | – | – | –
Cc1ccccc1C[S+]([O-])c1cccc[n+]1[O-] (stereo not drawn) [Compound 90] | ≧20 ug/ml | – | 37.0 | – | 37.5 | – | – | – | –
Cc1cccc(CSc2cccc[n+]2C)c1.[Cl-] [Compound 142] | >4 µg/mL | – | 3.4 | >4 µg/mL | 0.0 | 0.0 | – | – | –
O=S(=O)(c1ccc(Cl)c[n+]1[O-])C(Cl)c1ccccc1 (stereo not drawn) [Compound 114, 2-(Phenylchloromethylsulfonyl)-5-chloropyridine N-oxide] | – | 20.0 | – | – | 0.0 | 0.0 | > 0.8 | > 0.8 | > 20
COc1ccc(C)cc1CS(=O)(=O)c1cccc[n+]1[O-] [Compound 30] | 1.60 µg/mL (≈ 5.45 µM) | – | 37.0 | 14.0 µg/mL (≈ 47.7 µM) | – | – | – | – | –
Cc1ccc(C)c(C[S+]([O-])c2cccc[n+]2[O-])c1C (stereo not drawn) [Compound 97, 2-(2,3,6-Trimethylphenylmethylsulfinyl)pyridine N-oxide] | – | – | – | – | 0.0 | 0.0 | > 0.8 | > 0.8 | 11 (≈ 39.9 µM)
Cc1ccc(C)c(CSc2c(C)ccc[n+]2[O-])c1 [Compound 164] | 1.0 µg/mL (≈ 3.86 µM) | – | – | >20 µg/mL | – | 0.0 | – | – | –
Nc1ccn(C[C@@H](CO)OCP(=O)(O)O)c(=O)n1 [S-HPMPC, reference compound] | – | – | 0.3 | – | – | – | – | – | –
Nc1nc2c(ncn2COC(CO)CO)c(=O)[nH]1 [DHPG, reference compound] | – | – | 1 | – | – | – | – | – | –
